Tests used:
[1] = test system: human osteosarcoma cells (U2OS); experiment: CCK8 cytotoxicity assay, U2OS; assay type: cell-based; conditions: Homo sapiens, U2OS; CCK8, 48 h, carcinoma cell line
Text: (§1) The growth inhibitory effects of the isolated farnesyl phenolic compounds (1–8) against carcinoma cell lines [human osteosarcoma cells (U2OS), human colorectal carcinoma cells (SW620), human ES-2 ovarian carcinoma cells (ES-2)] and normal tissue cell lines [human hepatic cells (Lo2), African green monkey kidney vero cells (Vero)] were further investigated using CCK8 assay method (Table 3).
(§2) Carcinoma cell lines [human osteosarcoma cells (U2OS), human colorectal carcinoma cells (SW620), human ES-2 ovarian carcinoma cells (ES-2)] and normal tissue cell lines [human hepatic cells (Lo2), African green monkey kidney Vero cells (Vero)] The U2OS, SW620, ES-2, Lo2 and Vero were obtained from ATCC (Manassas, VA, USA). The SW620 and Vero cells were cultured in Roswell Park Memorial Institute medium (RPMI), with 10% fetal bovine serum (Hyclone) and 1% penicillin-streptomycin (Sigma). Lo2, U2OS and ES-2 cells were grown in Dulbecco's modified eagle medium (DMEM), with 10% fetal bovine serum (Hyclone) and 1% penicillin-streptomycin (Sigma). All of these cells were cultured at 37°C in a humidified atmosphere with 5% CO2. For CCK8 assay cytotoxicity evaluation of compounds, all cells were separately plated at a density of 1 × 10^4 cells/well in a 96 well plate. Cells were cultivated at 37°C in 5% CO2 atmosphere for 24 h, then medium in the wells was replaced with fresh medium containing compounds which were diluted in 8 dilution steps covering the range from 200 μM to 1.5625 μM. And DMSO was used as negative control. After 48 h incubation, 10 μL of CCK8 solution was added to each well. After 30 min, the optical density (OD) of each well was measured at wavelength of 450 nm on spectrophotometer. Data were corrected for background (no-cell control) and expressed as a percentage of the value for untreated cells. The IC50 values of the isolated compounds were derived from the mean OD values of the triplicate tests versus the drug concentration curves.

[2] = test system: human colorectal carcinoma cells (SW620); experiment: CCK8 cytotoxicity assay, SW620; assay type: cell-based; conditions: Homo sapiens, SW-620; CCK8, 48 h, carcinoma cell line
Text: as §1, §2

[3] = CCK8 cytotoxicity assay, Lo2; assay type: cell-based, human; conditions: human, Lo2 human hepatic cells (normal tissue cell line), CCK8, 48 h
Text: as §1, §2

[4] = CCK8 cytotoxicity assay, Vero; assay type: cell-based, African green monkey; conditions: African green monkey, Vero kidney cells (normal tissue cell line), CCK8, 48 h
Text: as §1, §2

SW620 cells = experiment: EdU cell proliferation assay; assay type: cell-based, human; conditions: 50 μM or 150 μM vs control, P<0.001
Description: EdU cell proliferation assays were carried out to detect the effects of compounds on DNA replication. EdU (5-Ethynyl-2- deoxyuridine), a thymidine analog, can penetrate into the replicating DNA molecule. Based on the specific response of EdU and fluorescent dyes, DNA replication activity could be detected.
SW620 cells were pretreated with 0, 50, 150 μM of compound 1, respectively. Dissociated cells were handled with EdU cell proliferation kit (RiboBio) according to the manuscript by according to the manufacturer's instructions. Then the morphology was observed by fluorescence microscopy (Zeiss, OBSERVER D1/AX10 cam HRC).

SW620 cells (53BP1 foci) = experiment: 53BP1 foci immunofluorescence; assay type: cell-based, human; conditions: 50 μM, 24 h vs control, P<0.01
Description: Meanwhile, MTH1 could prevent the mispairing of bases during replication and transversion mutations. Presumably, its inhibitors could cause DNA damage. P53 binding protein 1 (p53-binding, protein 1, 53BP1) is an important regulatory factor in response to double strand breaks.
Cells which adhered to glass coverslips were treated with DMSO or compounds (50 μM) for 24 h. Then cells were washed with PBS and then fixed with 3% paraformaldehyde in PBS for 20 min […]. Fixed cells were rinsed with PBS and incubated with penetrating agent (0.5% Triton-X-100) in PBS for 5 min. Next, cells were stained with an anti-53BP1 monoclonal antibody (abcam, diluted 1:250). Then the coverslips were rinsed with PBS at least 3 times andincubated with an Alexa Fluor 568 goat anti-rabbit IgG secondary antibody. After PBS rinsing, coverslips were stained with DAPI (sigma). Then the morphology was observed by confocal microscopy (Zeiss, OBSERVER D1/AX10 cam HRC).

MTH1 = MTH1 (Homo sapiens, UniProt P36639); experiment: Enzyme inhibition assay (8-oxo-dGTP hydrolysis, HPLC); assay type: biochemical; parameters: hexa-histidine (His6) (N, cleaved yes); made in house; host or cells: E. coli BL21 Star; conditions: 8-oxo-dGTP 25 μM, purified MTH1
Description: Microscale thermophoresis method (MST) was employed to assay the binding affinity between the compounds and MTH1. This technology can quantify protein-protein interactions or protein-small molecule interactions with high sensitivity through detecting fluorescent changes of molecules during thermophoresis.
To identify the efficacy of the eight compounds, an enzyme inhibition assay was carried out. […] Then the reaction was stop by the addition of 20 μL ice-cold Na2EDTA (50 mM). The reaction mixture was centrifugated at 15000 rpm at 4°C for 10 min. 20 μL of supernatant was injected on an HPLC column (Ultimate AQ-C18 RP-18e, 250 mm × 4.6 mm × 5 μm), and eluted isolate with 100 mM Na2HPO4-NaOH (pH 5.5)/MeOH 95:5 with flow rate 1 mL/min at column room of 30°C. […] Measurements were done in triplet, and IC50 values were calculated to compare the efficiency of various compounds.

SMILES: CO[C@]1(c2cc(O)cc(O)c2)C=C(CCCC(CO)CC/C=C(\C)COC(=O)/C=C/c2ccc(O)cc2)C(=O)O1 (stereo partly drawn) [Compound 1, (5R)-3-{9-[(E)-coumaroyl]-4-hydroxymethyl-8-methyl-7-nonene}-5-(3,5-dihydroxyphenyl)-5-methoxy-2(5H)-furanone]
- IC50 [1]: 111 ± 1.29 µM
- IC50 [2]: 45 ± 1.23 µM
- IC50 at 48 h [3]: 150.3 ± 1.09 µM
- IC50 at 48 h [4]: > 300 µM
- percentage of EdU+ cells (SW620 cells): significantly deceased
- 53BP1 foci formation (SW620 cells (53BP1 foci)): significantly aggregated
- IC50 (MTH1): 10.9 ± 1.04 µM

— article PMC5707067, “Farnesyl phenolic enantiomers as natural MTH1 inhibitors from Ganoderma sinense” (Oncotarget, 2017)
